Data: US10899774B2, “IRAK4 modulators” (Genentech, Inc., priority 2017, dated 2021)
Where a name gives a salt, the structure may show the parent alone.

Target: human IRAK4 (Homo sapiens (Human), UniProt Q9NWZ3)
Assay: IRAK4 kinase inhibition, Transcreener fluorescence polarization (ADP detection)
Assay type: biochemical
Settings: recombinant full-length His6-IRAK4; 1.25 nM IRAK4; 125 μM ATP; 90 min; ATP Km 642 μM
Procedure: Compounds were assayed for inhibition of human IRAK4 and IRAK1 catalytic activity using recombinant enzyme produced from insect cells. Full-length IRAK4 protein, carrying an N-terminal His6-Tag, was obtained from Life Technologies (Carlsbad, Calif., USA). The IRAK1 construct was produced internally and was comprised of IRAK1 residues Arg194 to Ser712, preceded by an NH2-terminal His6 tag and the coding sequence for glutathione-S-transferase.
Kinase activities were assayed using the Transcreener-Fluorecescence polarization platform (BelBrook Labs, Madison, Wis., USA) that measures amounts of the reaction product, ADP.
384 well assay plates spotted with compound received 4 μl of a 2× substrate (ATP+peptide) mix in reaction buffer, followed by 4 μl of 2× enzyme diluted in reaction buffer.

Sequence of human IRAK4 (Q9NWZ3 whole entry): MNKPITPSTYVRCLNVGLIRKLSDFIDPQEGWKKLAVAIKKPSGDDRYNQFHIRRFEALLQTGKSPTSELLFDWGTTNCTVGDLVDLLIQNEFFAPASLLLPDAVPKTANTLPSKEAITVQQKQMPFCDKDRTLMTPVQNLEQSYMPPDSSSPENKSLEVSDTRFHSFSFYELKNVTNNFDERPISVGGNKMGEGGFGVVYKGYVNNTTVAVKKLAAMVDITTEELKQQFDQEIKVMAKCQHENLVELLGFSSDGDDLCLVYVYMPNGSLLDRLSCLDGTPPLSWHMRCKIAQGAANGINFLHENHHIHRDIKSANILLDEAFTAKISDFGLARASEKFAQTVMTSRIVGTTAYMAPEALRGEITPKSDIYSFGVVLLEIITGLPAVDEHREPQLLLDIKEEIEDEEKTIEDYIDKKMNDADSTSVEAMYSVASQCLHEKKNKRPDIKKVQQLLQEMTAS

Ki [µM]	Structure (SMILES)
0.014	CC1(C)Cc2cc(NC(=O)c3ccn(-c4ccc(=O)[nH]c4)n3)c(N3CCOCC3)cc2O1 [Example 66, N-(2,2-Dimethyl-6-morpholino-3H-benzofuran-5-yl)-1-(6-oxo-1H-pyridin-3-yl)pyrazole-3-carboxamide]
0.028	CC1(CO)Cc2cc(NC(=O)c3csc4cc(C#N)cnc34)c(N3CCOCC3)cc2O1 (stereo not shown) [Example 69, 6-Cyano-N-(2-(hydroxymethyl)-2-methyl-6-morpholino-2,3-dihydrobenzofuran-5-yl)thieno[3,2-b]pyridine-3-carboxamide Formate]
0.0027	CC1(C)Cc2cc(NC(=O)c3ccn(-c4cc[nH]c(=O)c4)n3)c(N3CCOCC3)cc2O1 [Example 70, N-(2,2-Dimethyl-6-morpholino-3H-benzofuran-5-yl)-1-(2-oxo-1H-pyridin-4-yl)pyrazole-3-carboxamide]

Structure (SMILES)	Ki [µM]
CC1(C)Cc2cc(NC(=O)c3cnn4ccc(=O)[nH]c34)c(N3CCOCC3)cc2O1 [Example 71, N-(2,2-dimethyl-6-morpholino-3H-benzofuran-5-yl)-5-oxo-4H-pyrazolo[1,5-a]pyrimidine-3-carboxamide]	0.93
